Reference: patent US20260152503A1, “SPIROBICYCLIC COMPOUNDS” (ACERAND THERAPEUTICS (HONG KONG) LIMITED, priority 2022, published 2026)

Key:
[1] = molecular target: T1, FGFR1 (Homo sapiens, UniProt P11362); assay: pERK potency assay (In Cell ELISA), DMS114 cells; assay type: cell-based; details: DMS114 (FGFR1 amplification) cells, 3 hours
T1 construct: DMS114 (FGFR1 amplification); host or cells: DMS114
Method in brief: (§1)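 Cells with FGFR aberrations (DMS114 FGFR1 amplification, RT112 FGFR3-TACC3 fusion, AN3CA FGFR2 K310R/N549K) exposed 3 h at 37 °C to compound, final 0.000038–10 μM (4-fold dilutions). pERK (Thr202/Tyr204) quantified by In-Cell ELISA chemiluminescence; IC50 from 4-parameter sigmoidal fit.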

[2] = molecular target: T2, FGFR2 (Homo sapiens, UniProt P21802, K310R/N549K); assay: pERK potency assay (In Cell ELISA), AN3CA cells; assay type: cell-based; details: for IC50: pERK, AN3CA (FGFR2/k310R, N549K) cells, 3 hours; for FGFR1 IC50/FGFR2 IC50 / FGFR3 IC50/FGFR2 IC50: selectivity ratio, pERK potency; for FGFR1 IC50/FGFR2 IC50: FGFR2 relative to FGFR1; for FGFR3 IC50/FGFR2 IC50: FGFR2 relative to FGFR3
T2 construct: in FGFR aberrations of AN3CA (FGFR2/k310R, N549K); host or cells: AN3CA
Method in brief: as §1

[3] = molecular target: T3, Ba/F3 FGFR2-N549K (Homo sapiens, UniProt P21802, N549K, cells depend on it); assay: 2D cell proliferation assay, Ba/F3 FGFR2-N549K; assay type: cell-based, mouse; details: 96 hours, CTG, read-out: Cell Line, IC50 Ba/F3 FGFR2-N549K
T3 construct: fused on or other part: Q9H694 (Protein bicaudal C homolog 1)
Method: (§2) Low IC50 values are indicative of the high potency of the FGFR inhibitor compounds in this assay selling. […] Cell proliferation assays are performed in two-dimensional (2D)) anchorage-dependent conditions in 96 well plates (Corning® Black/Clear flat Bottom, Cat #3603) with the following cell lines: • Ba/F3 FGFR2-BICC1 (human […]): Mouse Ba/F3 cell line stably expressed exogenous human FGFR2-BICC1 fusion gene bearing V546F mutation in FGFR2 Ba/F3; • FGFR2-BICC1 (human FGFR2/[…]): Mouse Ba/F3 cell line stably expressed exogenous human FGFR2-BICC1 fusion gene bearing N549K mutation in FGFR2; • Snu-16: human gastric cancer cell with FGFR2 amplification; • KATO III: human gastric cancer cell with FGFR2 amplification; • AN3CA: Human endometrial cancer with FGFR2 mutation (k310R, N549K); • MFM-223: Human breast cancer with FGFR1/2 amplification; • MFE-296: Human endometrial cancer with FGFR2 mutation (N549K); • MFE-280: Human endometrial cancer with FGFR2 mutation ([…]); • NCI-H1581: human non-small cell lung cancer with FGFR1 amplification; • KG-1a: Acute myelogenous leukemia with FGFR1OP2-FGFR1 translocation; • DMS114: human small cell carcinoma of the lung with FGFR1 amplification; • RT112: human bladder cancer with FGFR3 overexpression/FGFR3-TACC3 fusion; • SW780: human bladder cancer with FGFR3 overexpression/FGFR3-BALAP2L1 fusion; • Hep3B: Liver cancer with FGF19 amplification (FGFR4 ligand); • AGS: Human gastric adenocarcinoma with Kras G12D mutation and FGFR wild type; • PC-9: human non-small cell lung cancer (NSCLC) with wild-type FGFR and an EGFR del19 mutation; or • H1975: human non-small cell lung cancer (NSCLC) with wild-type FGFR and EGFR L858R/T790M mutation.
(§3) Cell lines are purchased from the American Type Culture Collection (ATCC) or Sigma. All cell lines are maintained in RPMI-1640 or DMEM supplemented with 10% heat-inactivated fetal bovine serum.
(§4) Cells growing in the log phase are detached with Gibco™ TrypLE™ Express Enzyme and plated in 96 well plate at 3000 to 5000 cells/well in 100 μl of media. After overnight incubation at 37° C., 5% CO2 incubator, cells are treated with compounds (50 uL/well) at the final concentrations spanning from 0.000038 uM to 10 μM (4-fold serial dilution for total of 10 points). Cells are incubated at 37° C., 5% CO2, and 95% humidity incubator for 96 hours. At the end of incubation 2D CTG reagent from Promega was added to each well according to vendors recommendation and mixed for 10 min in dark. The luminescence signals are determined with a Biotek™ plate reader. Data is fitted using a sigmoidal curve analysis program (GraphPad Prism®) with variable hill slope and IC50 is determined.

[4] = molecular target: T4, FGFR3 (Homo sapiens, UniProt P22607); assay: pERK potency assay (In Cell ELISA), RT112 cells; assay type: cell-based; details: RT112 (FGFR3 overexpression/FGFR3-TACC3 fusion) cells, 3 hours
T4 construct: RT112 (FGFR3 overexpression/FGFR3-TACC3 fusion); host or cells: RT112; the other entry of the earlier key: TACC3 (Q9Y6A5, Transforming acidic coiled-coil-containing protein 3)
Method in brief: as §1

[5] = tested on: SNU-16; assay: 2D cell proliferation assay, SNU-16; assay type: cell-based; details: Homo sapiens, 96 hours, CTG, read-out: Cell Line, IC50 SNU-16
Method: as §2, §3, §4

[6] = tested on: AN3CA; assay: 2D cell proliferation assay, AN3CA; assay type: cell-based; details: Homo sapiens, AN3-CA, 96 hours, CTG, read-out: Cell Line, IC50 AN3CA
Method: as §2, §3, §4

[7] = tested on: KATO III; assay: 2D cell proliferation assay, KATO III; assay type: cell-based; details: Homo sapiens, 96 hours, CTG, read-out: Cell Line, IC50 KATO III
Method: as §2, §3, §4

[8] = molecular target: T5, Ba/F3 FGFR2-V564F (Homo sapiens, UniProt P21802, V564F, cells depend on it); assay: 2D cell proliferation assay, Ba/F3 FGFR2-V564F; assay type: cell-based, mouse; details: 96 hours, CTG, read-out: Cell Line, IC50 Ba/F3 FGFR2-V564F
T5 construct: fused on or other part: Q9H694 (Protein bicaudal C homolog 1)
Method: as §2, §3, §4

T5 sequence (P21802 whole entry V564F, the tested form may be a part): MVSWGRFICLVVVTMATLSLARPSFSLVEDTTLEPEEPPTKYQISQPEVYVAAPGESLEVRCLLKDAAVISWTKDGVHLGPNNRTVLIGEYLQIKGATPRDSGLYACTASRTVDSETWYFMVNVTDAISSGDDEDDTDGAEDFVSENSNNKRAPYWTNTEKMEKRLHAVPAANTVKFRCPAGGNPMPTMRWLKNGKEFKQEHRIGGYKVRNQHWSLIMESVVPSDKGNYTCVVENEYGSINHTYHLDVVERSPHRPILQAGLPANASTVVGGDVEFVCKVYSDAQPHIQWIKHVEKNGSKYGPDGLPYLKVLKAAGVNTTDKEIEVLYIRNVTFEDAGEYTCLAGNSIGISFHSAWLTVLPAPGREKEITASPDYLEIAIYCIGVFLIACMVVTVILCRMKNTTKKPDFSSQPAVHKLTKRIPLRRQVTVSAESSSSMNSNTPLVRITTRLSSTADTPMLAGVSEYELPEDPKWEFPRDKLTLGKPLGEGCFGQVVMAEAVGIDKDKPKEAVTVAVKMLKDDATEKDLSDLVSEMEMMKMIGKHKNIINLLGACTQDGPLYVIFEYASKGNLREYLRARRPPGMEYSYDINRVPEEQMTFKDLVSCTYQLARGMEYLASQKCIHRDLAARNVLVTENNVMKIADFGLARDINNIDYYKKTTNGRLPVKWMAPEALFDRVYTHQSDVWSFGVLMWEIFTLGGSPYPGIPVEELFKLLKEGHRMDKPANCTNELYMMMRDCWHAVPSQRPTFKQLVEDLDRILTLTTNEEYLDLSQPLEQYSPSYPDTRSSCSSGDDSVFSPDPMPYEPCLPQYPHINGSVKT
T1 sequence (P11362 22-822): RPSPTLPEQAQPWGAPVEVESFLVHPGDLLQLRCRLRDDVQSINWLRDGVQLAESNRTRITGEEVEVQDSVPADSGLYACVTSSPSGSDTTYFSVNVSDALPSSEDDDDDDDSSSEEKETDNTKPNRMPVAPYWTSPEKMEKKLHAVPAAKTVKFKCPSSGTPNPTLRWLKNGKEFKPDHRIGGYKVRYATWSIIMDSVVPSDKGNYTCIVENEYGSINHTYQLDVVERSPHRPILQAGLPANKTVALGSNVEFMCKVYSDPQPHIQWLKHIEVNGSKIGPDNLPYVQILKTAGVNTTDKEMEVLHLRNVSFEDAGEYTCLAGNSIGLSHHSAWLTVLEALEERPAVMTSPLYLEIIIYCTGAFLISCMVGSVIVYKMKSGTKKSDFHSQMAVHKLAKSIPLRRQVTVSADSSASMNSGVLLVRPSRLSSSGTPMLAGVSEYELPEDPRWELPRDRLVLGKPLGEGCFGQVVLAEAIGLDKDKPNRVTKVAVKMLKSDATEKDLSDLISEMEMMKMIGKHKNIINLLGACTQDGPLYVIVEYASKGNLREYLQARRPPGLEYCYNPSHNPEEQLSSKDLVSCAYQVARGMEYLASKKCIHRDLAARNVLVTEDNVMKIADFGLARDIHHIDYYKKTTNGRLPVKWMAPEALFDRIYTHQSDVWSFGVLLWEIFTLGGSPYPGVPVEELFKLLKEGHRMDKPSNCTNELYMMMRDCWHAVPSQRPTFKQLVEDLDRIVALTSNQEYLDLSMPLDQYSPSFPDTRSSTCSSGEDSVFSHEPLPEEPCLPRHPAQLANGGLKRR
T2 sequence (P21802 22-821 K310R/N549K): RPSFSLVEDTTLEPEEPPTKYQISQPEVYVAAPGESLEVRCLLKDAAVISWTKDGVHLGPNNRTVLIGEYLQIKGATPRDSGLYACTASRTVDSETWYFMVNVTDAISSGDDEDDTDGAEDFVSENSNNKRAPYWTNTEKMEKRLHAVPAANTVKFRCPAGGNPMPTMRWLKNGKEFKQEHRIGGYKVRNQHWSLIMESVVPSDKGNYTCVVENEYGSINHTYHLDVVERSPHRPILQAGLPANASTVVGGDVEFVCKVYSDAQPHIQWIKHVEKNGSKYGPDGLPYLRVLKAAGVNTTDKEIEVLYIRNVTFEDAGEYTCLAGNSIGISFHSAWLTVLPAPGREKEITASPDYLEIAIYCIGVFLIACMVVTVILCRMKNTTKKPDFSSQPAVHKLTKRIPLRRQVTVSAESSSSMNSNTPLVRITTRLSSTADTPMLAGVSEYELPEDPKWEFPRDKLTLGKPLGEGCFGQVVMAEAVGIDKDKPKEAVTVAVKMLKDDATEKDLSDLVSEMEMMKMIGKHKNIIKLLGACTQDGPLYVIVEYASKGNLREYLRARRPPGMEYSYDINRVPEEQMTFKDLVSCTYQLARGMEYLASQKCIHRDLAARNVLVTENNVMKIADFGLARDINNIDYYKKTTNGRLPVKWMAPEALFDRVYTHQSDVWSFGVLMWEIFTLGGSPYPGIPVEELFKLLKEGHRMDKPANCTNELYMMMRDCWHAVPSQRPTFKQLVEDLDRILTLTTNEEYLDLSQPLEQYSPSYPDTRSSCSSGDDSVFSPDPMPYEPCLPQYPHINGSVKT
T3 sequence (P21802 whole entry N549K, the tested form may be a part): as the sequence (P21802 whole entry V564F, the tested form may be a part) above, with N549K, F564V counted along it

SMILES | IC50 [1] | IC50 [2] | FGFR1 IC50/FGFR2 IC50 [2] | FGFR3 IC50/FGFR2 IC50 [2] | GI50 [3] | IC50 [4] | IC50 [5] | IC50 [6] | IC50 [7] | GI50 [8]
C=CC(=O)N1CCC2(CC=C(c3c(-c4ncccn4)c4c(N)ncnc4n3C)CC2)CC1 [Example 33, 1-(9-(4-amino-7-methyl-5-(pyrimidin-2-yl)-7H-pyrrolo[2,3-d]pyrimidin-6-yl)-3-azaspiro[5.5]undec-8-en-3-yl)prop-2-en-1-one] | > 100 nM | 1 to 10 nM | G (a selectivity ratio greater than 150 but less than or equal to 500) | I (a selectivity ratio greater than 1000 but less than or equal to 2000) | 1 to 10 nM | > 100 nM | 1 to 10 nM | 10 to 30 nM | 1 to 10 nM | ≤ 1 nM
C=CC(=O)N1CCC2(CC=C(c3c(-c4ccc(OC)nc4)c4c(N)ncnc4n3C)CC2)CC1C (stereo not drawn) [Example 39, 1-(9-(4-amino-5-(6-methoxypyridin-3-yl)-7-methyl-7H-pyrrolo[2,3-d]pyrimidin-6-yl)-2-methyl-3-azaspiro[5.5]undec-8-en-3-yl)prop-2-en-1-one] | > 100 nM | 1 to 10 nM | G (a selectivity ratio greater than 150 but less than or equal to 500) | I (a selectivity ratio greater than 1000 but less than or equal to 2000) | 1 to 10 nM | > 100 nM | 10 to 30 nM | 10 to 30 nM | 10 to 30 nM | 10 to 30 nM
C=CC(=O)N1CCC2(CC=C(c3c(-c4ccc(Oc5nccc(C)n5)c(F)c4)c4c(N)ncnc4n3C)CC2)CC1 [Example 62, 1-(9-(4-amino-5-(3-fluoro-4-((4-methylpyrimidin-2-yl)oxy)phenyl)-7-methyl-7H-pyrrolo[2,3-d]pyrimidin-6-yl)-3-azaspiro[5.5]undec-8-en-3-yl)prop-2-en-1-one] | > 100 nM | 1 to 10 nM | F (a selectivity ratio greater than 50 but less than or equal to 150) | G (a selectivity ratio greater than 150 but less than or equal to 500) | 10 to 30 nM | > 100 nM | 10 to 30 nM | 30 to 100 nM | 10 to 30 nM | ≤ 1 nM
C=CC(=O)N1CCC2(CC=C(c3c(-c4ccc(F)cc4)c4c(N)ncnc4n3C)CC2)CC1 [Example 11, 1-(9-(4-amino-5-(4-fluorophenyl)-7-methyl-7H-pyrrolo[2,3-d]pyrimidin-6-yl)-3-azaspiro[5.5]undec-8-en-3-yl)prop-2-en-1-one] | > 100 nM | 1 to 10 nM | I (a selectivity ratio greater than 1000 but less than or equal to 2000) | J (a selectivity ratio greater than 2000) | 1 to 10 nM | > 100 nM | 10 to 30 nM | 30 to 100 nM | 30 to 100 nM | 30 to 100 nM
C=CC(=O)N1CCC2(CC=C(c3[nH]c4ncnc(N)c4c3-c3ncccn3)CC2)CC1 [Example 58, 1-(9-(4-amino-5-(pyrimidin-2-yl)-7H-pyrrolo[2,3-d]pyrimidin-6-yl)-3-azaspiro[5.5]undec-8-en-3-yl)prop-2-en-1-one] | > 100 nM | 1 to 10 nM | G (a selectivity ratio greater than 150 but less than or equal to 500) | H (a selectivity ratio greater than 500 but less than or equal to 1000) | 10 to 30 nM | > 100 nM | 10 to 30 nM | 1 to 10 nM | 10 to 30 nM | 1 to 10 nM
C=CC(=O)N1CCC2(CC=C(c3c(-c4ccc(OC5CCC5)nc4)c4c(N)ncnc4n3C)CC2)CC1 [Example 26, 1-(9-(4-amino-5-(6-cyclobutoxypyridin-3-yl)-7-methyl-7H-pyrrolo[2,3-d]pyrimidin-6-yl)-3-azaspiro[5.5]undec-8-en-3-yl)prop-2-en-1-one] | > 100 nM | 1 to 10 nM | F (a selectivity ratio greater than 50 but less than or equal to 150) | G (a selectivity ratio greater than 150 but less than or equal to 500) | 1 to 10 nM | > 100 nM | 1 to 10 nM | 10 to 30 nM | 1 to 10 nM | 1 to 10 nM
C=CC(=O)N1CCC2(CC=C(c3c(-c4ncc(C#N)cn4)c4c(N)ncnc4n3C)CC2)CC1 [Example 51, 2-(6-(3-acryloyl-3-azaspiro[5.5]undec-8-en-9-yl)-4-amino-7-methyl-7H-pyrrolo[2,3-d]pyrimidin-5-yl)pyrimidine-5-carbonitrile] | > 100 nM | ≤ 1 nM | J (a selectivity ratio greater than 2000) | J (a selectivity ratio greater than 2000) | 1 to 10 nM | > 100 nM | 10 to 30 nM | 30 to 100 nM | 10 to 30 nM | 1 to 10 nM
C=CC(=O)N1CCC2(CC=C(c3c(-c4ncc(C(F)(F)F)cn4)c4c(N)ncnc4n3C)CC2)CC1 [Example 42, 1-(9-(4-amino-7-methyl-5-(5-(trifluoromethyl)pyrimidin-2-yl)-7H-pyrrolo[2,3-d]pyrimidin-6-yl)-3-azaspiro[5.5]undec-8-en-3-yl)prop-2-en-1-one] | > 100 nM | ≤ 1 nM | J (a selectivity ratio greater than 2000) | J (a selectivity ratio greater than 2000) | 1 to 10 nM | > 100 nM | 10 to 30 nM | 10 to 30 nM | 10 to 30 nM | 1 to 10 nM
C=CC(=O)N1CCC2(CC=C(c3c(C#N)c4c(N)ncnc4n3C)CC2)CC1 [Example 57, 6-(3-acryloyl-3-azaspiro[5.5]undec-8-en-9-yl)-4-amino-7-methyl-7H-pyrrolo[2,3-d]pyrimidine-5-carbonitrile] | > 100 nM | 1 to 10 nM | G (a selectivity ratio greater than 150 but less than or equal to 500) | H (a selectivity ratio greater than 500 but less than or equal to 1000) | 10 to 30 nM | > 100 nM | 1 to 10 nM | 1 to 10 nM | 1 to 10 nM | > 100 nM
